Source: publication PMC11990879, “Anticandidal Activity of Lipopeptides Containing an LL-37-Derived Peptide Fragment KR12” (Molecules, 2025)
Converted amounts (≈) assume the structure as drawn. Where two headings read alike, the source gives them in different places. Marks after values point to notes of the source that are not given here. Where a SMILES comes first, the peptide text is derived from it. The star is where a group is joined. Decanoyl = CCCCCCCCCC(=O)*; Octanoyl = CCCCCCCC(=O)*; X1 = CCCCCCC(CCCC)C(=O)*

Assays:
[1] = test system: C. albicans biofilms cultured on polystyrene; format: cell-based, Candida albicans; settings: C. albicans biofilms of 24, 48 and 72 h, up to 512 mg/L
C. albicans ATCC 10231 [2] = test: microbe, parasite or virus in culture; format: cell-based, Candida albicans; settings: C. albicans, RPMI 1640, inoculum ca. 5 × 10^3 CFU/mL, range 0.5–256 mg/L, 48 h, 25 °C, read visually, three times on three days
Procedure: (§1) Fungal strains were purchased from the Polish Collection of Microorganisms (Polish Academy of Science, Wroclaw, Poland). Four reference strains of Candida (C. albicans ATCC 10231, C. glabrata ATCC 15126, C. lypolytica PCM 2680, and C. tropicalis PCM 2680) were cultured on the Dextrose Sabouraud Agar (DSA, Neogen, Lansing, MI, USA). Before performing the assays, the fungi were cultured in a Sabouraud dextrose broth (DSB, Neogen, Lansing, MI, USA) for 48 h under aerobic conditions at 25 °C. Afterward, the fungal cultures were centrifuged (2500 rpm, 10 min) and resuspended in the appropriate liquid medium for appropriate inoculums for the performed assays.
(§2) The strains cultured described in Section 4.1 were suspended in the Roswell Park Memorial Institute 1640 Medium (RPMI, Sigma-Aldrich, St. Louis, MO, USA) at an initial inoculum of ca. 5 × 10^3 CFU/mL. The stock solutions (1024 mg/L) of tested compounds in RPMI were added to 96-well polystyrene plates and diluted serially to well no. 10, leaving wells 11 and 12 for fertility and sterility controls. The tested Candida strains were exposed to graded concentrations (range 0.5–256 mg/L) of the lipopeptides and conventional antifungals (benzalkonium chloride, fluconazole, and nystatin) for 48 h under aerobic conditions at 25 °C. After incubation, the results were read visually.

C. albicans ATCC 10231 [3] = test: microbe, parasite or virus in culture; format: cell-based, Candida albicans; settings: 48 h, 25 °C, read visually, three times
Procedure: as §1, §2
(§3) Then the results were read visually. Both MIC as well as the MFC assays were performed threetimes on three different days.

C. glabrata ATCC 15126 [4] = test: microbe, parasite or virus in culture; format: cell-based, Candida glabrata; settings: first C. glabrata column, RPMI 1640, inoculum ca. 5 × 10^3 CFU/mL, range 0.5–256 mg/L, 48 h, 25 °C, read visually, three times on three days
Procedure: as §1, §2

[5] = test system: Candida strains (C. albicans, C. glabrata, C. lipolytica, C. tropicalis); format: cell-based; settings: for Fungicidal activity (MFC relative to MIC): MFCs equal to or twice as high as the corresponding MICs
Procedure: as §1, §2, §3

C. lypolytica PCM 2680 [6] = test: microbe, parasite or virus in culture; format: cell-based, Candida lipolytica; settings: 48 h, 25 °C, read visually, three times
Procedure: as §1, §2, §3

C. tropicalis PCM 2680 [7] = test: microbe, parasite or virus in culture; format: cell-based, Candida tropicalis; settings: 48 h, 25 °C, read visually, three times
Procedure: as §1, §2, §3

[8] = test system: C. albicans biofilms cultured on polystyrene; format: cell-based, Candida albicans
Procedure: as §1
Fungal suspensions in DSB were added to the wells at initial inoculums of ca. 5 × 10^6 CFU/mL and incubated under aerobic conditions, at 25 °C for 24 h, 48 h, and 72 h, in order to grow candidal biofilms of different maturity. After the appropriate time of incubation, the wells were washed with phosphoric buffered (PBS), and fresh RPMI medium supplemented with antifungals and the lipopeptides at graded concentrations (range […]) were added. The fungal biofilms were exposed to the compounds for 24 h (aerobic conditions, 25 °C). After the exposure to antifungals, the content of the wells was aspirated and a 0.01% solution of resazurin (Sigma-Aldrich, St. Louis, MO, USA) in DSB was added. Resazurin (blue) was applied as a cell viability reagent, which upon contact with living cells is reduced to a pink resorufin. The samples with the dye were incubated for 1 h at 25 °C and the absorbance was measured at 570 and 600 nm with a microplate reader (Thermo Fisher Scientific, Waltham, MA, USA). The assays were performed four times on four different days. The results are presented as the means of the measured percentage of metabolic activity (MA) of fungi in the well when compared with positive (sample with Candida in DSB) and negative controls (pure DSB), which were taken as 100% and 0%, respectively. The MA of Candida in the samples was measured according to the following formula:MA(%) = (ΔAbs of sample − ΔAbs of negative control)/(ΔAbs of positive control − ΔAbs of negative control);(1) ΔAbs = absorbance at 570 nm − absorbance at 600 nm.(2)
The MBEC was taken as the lowest concentration of antifungal which allowed us to reduce the metabolism of fungal cells to 10% (or less) of the positive control.

C. lypolytica PCM 2680 [9] = test: microbe, parasite or virus in culture; format: cell-based, Candida lipolytica; settings: range 0.5–256 mg/L, 48 h, 25 °C, read visually, three times on three days
Procedure: as §1, §2

C. tropicalis PCM 2680 [10] = test: microbe, parasite or virus in culture; format: cell-based, Candida tropicalis; settings: C. tropicalis, RPMI 1640, inoculum ca. 5 × 10^3 CFU/mL, range 0.5–256 mg/L, 48 h, 25 °C, read visually, three times on three days
Procedure: as §1, §2

C. glabrata ATCC 15126 [11] = test: microbe, parasite or virus in culture; format: cell-based, Candida glabrata; settings: 48 h, 25 °C, read visually, three times
Procedure: as §1, §2, §3

human red blood cells = settings: cited from earlier work
Excerpt: Table 2 Minimum inhibitory concentrations (MIC) and minimum fungicidal concentrations (MFC) determined for peptides and reference antifungals [g/L]. The highest antimicrobial activity is marked in green, medium values in yellow, while the weakest antifungal activity is marked in red. Minimum hemolytic concentration (MHC5%—causing hemolysis of 5% of human red blood cells) determined in previous stu | column: MHC5%

[12] = test system: Staphylococcus aureus biofilm; settings: previous study; ref [21]; cited from earlier work
Excerpt: Lipidation has proven to be an effective strategy for improving the microbiological properties of the KR12-NH2 peptide. […] The influence of the structure of substituted fatty acids as well as the lipidation pattern was noticed. Among derivatives containing linear fatty acid residues, an analog with octanoic acid turned out to be the most promising antibacterial agent. The C8-KR12-NH2 peptide (compound IV) inhibited the growth of both Gram-p ...

[13] = C. albicans biofilm cultured on polystyrene for 24 h, exposure 24 h, 25 °C, RPMI, resazurin, metabolic activity reduced to 10% or less, four times on four days
[14] = C. albicans biofilm cultured on polystyrene for 48 h, exposure 24 h, 25 °C, RPMI, resazurin, metabolic activity reduced to 10% or less, four times on four days
[15] = C. albicans biofilm cultured on polystyrene for 72 h, exposure 24 h, 25 °C, RPMI, resazurin, metabolic activity reduced to 10% or less, four times on four days
[16] = biofilms cultured on polystyrene, 24 h
[17] = biofilms cultured on polystyrene, 48 h
[18] = biofilms cultured on polystyrene, 72 h
[19] = MIC wells and two higher concentrations seeded on DSA

With `OC(Cn1cncn1)(Cn1cncn1)c1ccc(F)cc1F` [Fluconazole, fluconazole, reference compound] the “Antibiofilm activity against any type of biofilm” value (“Antibiofilm activity” below) [1] was “showed no antibiofilm activity”, the MIC (C. albicans ATCC 10231 [2]; Candida albicans, ATCC10231, read-out: Minimum inhibitory concentration (MIC), C. albicans) was 4000 µg/mL (≈ 13.1 mM) and the MFC (C. albicans ATCC 10231 [3]; Candida albicans, ATCC10231, MIC wells and two higher concentrations seeded on DSA, read-out: Minimum fungicidal concentration (MFC), C. albicans) was 8000 µg/mL (≈ 26.1 mM). For the same compound, the MIC (C. glabrata ATCC 15126 [4]; Nakaseomyces glabratus, ATCC15126, read-out: Minimum inhibitory concentration (MIC), C. glabrata) was 500 µg/mL (≈ 1.63 mM), the “Fungicidal activity (MFC relative to MIC)” value [5] was “fungicidal activity against C. albicans and C. glabrata” and the MFC (C. lypolytica PCM 2680 [6]; Yarrowia lipolytica, PCM2680, MIC wells and two higher concentrations seeded on DSA, read-out: Minimum fungicidal concentration (MFC), C. lipolytica) was 8000 µg/mL (≈ 26.1 mM). The MFC (C. tropicalis PCM 2680 [7]; Candida tropicalis, PCM2680, MIC wells and two higher concentrations seeded on DSA, read-out: Minimum fungicidal concentration (MFC), C. tropicalis) was 8000 µg/mL (≈ 26.1 mM), the “MBEC 24 h” value [8, 13] was >512 * mg/L and the “MBEC 48 h” value [8, 14] was >512 * mg/L. The “MBEC 72 h” value [8, 15] was >512 * mg/L, the MIC (C. lypolytica PCM 2680 [9]; Yarrowia lipolytica, PCM2680, RPMI 1640, inoculum ca. 5 × 10^3 CFU/mL, read-out: Minimum inhibitory concentration (MIC), C. lipolytica) was 2000 µg/mL (≈ 6.53 mM) and the MIC (C. tropicalis PCM 2680 [10]; Candida tropicalis, PCM2680, read-out: Minimum inhibitory concentration (MIC), C. tropicalis) was 2000 µg/mL (≈ 6.53 mM). The MFC (C. glabrata ATCC 15126 [11]; Nakaseomyces glabratus, ATCC15126, MIC wells and two higher concentrations seeded on DSA, read-out: Minimum fungicidal concentration (MFC), C. glabrata) was 2000 µg/mL (≈ 6.53 mM).

For `CCCCCCCC(=O)N[C@@H](CCCCN)C(=O)N[C@@H](CCCNC(=N)N)C(=O)N[C@H](C(=O)N[C@H](C(=O)N[C@@H](CCC(N)=O)C(=O)N[C@@H](CCCNC(=N)N)C(=O)N[C@H](C(=O)N[C@@H](CCCCN)C(=O)N[C@@H](CC(=O)O)C(=O)N[C@@H](Cc1ccccc1)C(=O)N[C@@H](CC(C)C)C(=O)N[C@@H](CCCNC(=N)N)C(N)=O)[C@@H](C)CC)C(C)C)[C@@H](C)CC` [IV, C8-KR12-NH2] (Octanoyl-KRIVQRIKDFLR-NH2), the “MHC5% (minimum hemolytic concentration causing hemolysis of 5% of human red blood cells)” value (“MHC5%” below) (human red blood cells) is listed as 64 g/L and the “MBEC against Staphylococcus aureus biofilm” value [12] is listed as 4 to 16 mg/L.

In the case of `CCCCCCCCCC(=O)N[C@@H](CCCCN)C(=O)N[C@@H](CCCNC(=N)N)C(=O)N[C@H](C(=O)N[C@H](C(=O)N[C@@H](CCC(N)=O)C(=O)N[C@@H](CCCNC(=N)N)C(=O)N[C@H](C(=O)N[C@@H](CCCCN)C(=O)N[C@@H](CC(=O)O)C(=O)N[C@@H](Cc1ccccc1)C(=O)N[C@@H](CC(C)C)C(=O)N[C@@H](CCCNC(=N)N)C(N)=O)[C@@H](C)CC)C(C)C)[C@@H](C)CC` [V, C10-KR12-NH2] (Decanoyl-KRIVQRIKDFLR-NH2), the “Antibiofilm activity” value [1] is listed as “did not exhibit antibiofilm activity”, the “MHC5%” value (human red blood cells) is listed as 4 g/L and the “MBEC 24 h” value [8, 16] is listed as >512 * mg/L. The “MBEC 48 h” value [8, 17] was >512 * mg/L and the “MBEC 72 h” value [8, 18] was >512 * mg/L.

In the case of `CCCCCCC(CCCC)C(=O)N[C@@H](CCCCN)C(=O)N[C@@H](CCCNC(=N)N)C(=O)N[C@H](C(=O)N[C@H](C(=O)N[C@@H](CCC(N)=O)C(=O)N[C@@H](CCCNC(=N)N)C(=O)N[C@H](C(=O)N[C@@H](CCCCN)C(=O)N[C@@H](CC(=O)O)C(=O)N[C@@H](Cc1ccccc1)C(=O)N[C@@H](CC(C)C)C(=O)N[C@@H](CCCNC(=N)N)C(N)=O)[C@@H](C)CC)C(C)C)[C@@H](C)CC` (stereo partly shown) [XIX, 2-Butyloctanoic acid-KR12-NH2] (X1-KRIVQRIKDFLR-NH2), the “Antibiofilm activity” value [1] is given as “did not exhibit antibiofilm activity”, the “MHC5%” value (human red blood cells) is given as 16 g/L and the “MIC, range over the tested strains” value ([5]; 48 h) is given as 4 to 16 µg/mL. The “MBEC 24 h” value [8, 16] was >512 * mg/L, the “MBEC 48 h” value [8, 17] was >512 * mg/L and the “MBEC 72 h” value [8, 18] was >512 * mg/L.

With “benzalkonium chloride [reference compound]” the “Minimum inhibitory concentration (MIC), C. albicans” value (C. albicans ATCC 10231 [2]) was 2 µg/mL, the “Minimum fungicidal concentration (MFC), C. albicans” value (C. albicans ATCC 10231 [3]; [19]) was 4 µg/mL and the “Minimum inhibitory concentration (MIC), C. glabrata” value (C. glabrata ATCC 15126 [4]) was 1 µg/mL. For the same compound, the “Fungicidal activity (MFC relative to MIC)” value [5] was “fungicidal activity against all Candida strains”, the “Minimum fungicidal concentration (MFC), C. lipolytica” value (C. lypolytica PCM 2680 [6]; [19]) was 2 µg/mL and the “Minimum fungicidal concentration (MFC), C. tropicalis” value (C. tropicalis PCM 2680 [7]; [19]) was 2 µg/mL. For the same compound, the “MBEC 24 h” value [8, 13] was 64 mg/L, the “MBEC 48 h” value [8, 14] was 128 mg/L and the “MBEC 72 h” value [8, 15] was 128 mg/L. The “Concentration effective against 48–72 h biofilms relative to MIC” value ([8]; C. albicans, 48–72 h biofilms, MBEC/MIC) was greater than 60 times, the “Concentration effective against 24 h biofilm relative to MIC” value ([8]; C. albicans, 24 h biofilm, MBEC/MIC) was “over 30 times” and the “Minimum inhibitory concentration (MIC), C. lipolytica” value (C. lypolytica PCM 2680 [9]; RPMI 1640, inoculum ca. 5 × 10^3 CFU/mL) was 1 µg/mL. The “Minimum inhibitory concentration (MIC), C. tropicalis” value (C. tropicalis PCM 2680 [10]) was 0.5 µg/mL and the “Minimum fungicidal concentration (MFC), C. glabrata” value (C. glabrata ATCC 15126 [11]; [19]) was 2 µg/mL.
